15 molecules from US10703756B2, “Pyrrolo[2,3-D]pyrimidinyl, pyrrolo[2,3-B]pyrazinyl, pyrrolo[2,3-B]pyridinyl acrylamides and epoxides thereof” (Pfizer Inc., priority 2015, dated 2020) can be followed below.

The subject of data set [1] is IL-15 induced P-STAT5 in human PBMC. Nature of the data set: PBMC IL-15 Induced P-STAT5. It counts as cell-based. The settings on record: human PBMC, IL-15 final 41 ng/mL; read-out: PBMC IL15_pSTAT5_IC50. A digest of the protocol: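 Thawed human PBMC, rested in human plasma, were preincubated 15 min at 37 °C with compound (0.2% DMSO), then stimulated 15 min with IL-15 at 41 ng/mL final. After paraformaldehyde fixation and methanol permeabilisation, Alexa Fluor 647 anti-STAT5 staining overnight at 4 °C was analysed by flow cytometry on total lymphocytes.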

Data set [2] relates to IL-15 induced STAT5 phosphorylation in human whole blood lymphocytes. The experiment in a line: HWB IL-15 Induced STAT5 Phosphorylation Assay. It counts as cell-based. Conditions: Lymphocyte, IL-15 final 50 ng/ml, read-out: HWB_IL15 pSTAT5 IC50. Here is the method:
HWB IL-15 Induced STAT5 Phosphorylation Assay
After serial dilution of the test compounds 1:2 in DMSO at desired concentration (500× of final), the compounds were further diluted in PBS (by adding 4 μL compound/DMSO in 96 μL PBS, [DMSO]=4%, 20× final). To 96-well polypropylene plates were added 90 μl HWB (heparin treated Human Whole Blood)/well, followed by 5 μl/well 4% DMSO in D-PBS or various concentrations of 20× inhibitor in 4% DMSO in D-PBS (w/o Ca^+2 or Mg^+2) to give 1× in 0.2% DMSO. After mixing and incubating for 45 minutes at 37° C., 5 μl D-PBS (unstimulated control) or 20× stocks of 5 μl human IL-15 (final concentration is 50 ng/ml) were added, and mixed three times. After incubating 15 minutes at 37° C., 1× Lyse/Fix Buffer (BD Phosflow 5× Lyse/Fix Buffer) was added to all wells at 1000 μl/well, then incubated for 20 minutes at 37° C. and spun 5 mins at 1200 rpm. After washing in 1000 μl FACS buffer 1× and spinning for 5 mins at 1200 rpm, 400 μl ice cold Perm Buffer III were added to each well. After mixing gently (1-2×) and incubating on ice for 30 minutes, spinning for 5 mins at 1200 rpm without interruption, and washing 1× in cold […] FACS buffer (D-PBS containing 0.1% BSA and 0.1% sodium azide) 250 μl/well of the desired AlexaFluor647-conjugated anti-phospho STATS antibody at 1:125 dilution in FACS buffer was added. Following incubating at 4° C. over night, all the samples were transferred to 96-well polypropylene U-bottom plate, and checked by flow cytometry gated on total lymphocytes.

Data set [3] has as its target T1, JAK3 enzyme (Homo sapiens, UniProt P52333).
T1 sequence (P52333 1-1124): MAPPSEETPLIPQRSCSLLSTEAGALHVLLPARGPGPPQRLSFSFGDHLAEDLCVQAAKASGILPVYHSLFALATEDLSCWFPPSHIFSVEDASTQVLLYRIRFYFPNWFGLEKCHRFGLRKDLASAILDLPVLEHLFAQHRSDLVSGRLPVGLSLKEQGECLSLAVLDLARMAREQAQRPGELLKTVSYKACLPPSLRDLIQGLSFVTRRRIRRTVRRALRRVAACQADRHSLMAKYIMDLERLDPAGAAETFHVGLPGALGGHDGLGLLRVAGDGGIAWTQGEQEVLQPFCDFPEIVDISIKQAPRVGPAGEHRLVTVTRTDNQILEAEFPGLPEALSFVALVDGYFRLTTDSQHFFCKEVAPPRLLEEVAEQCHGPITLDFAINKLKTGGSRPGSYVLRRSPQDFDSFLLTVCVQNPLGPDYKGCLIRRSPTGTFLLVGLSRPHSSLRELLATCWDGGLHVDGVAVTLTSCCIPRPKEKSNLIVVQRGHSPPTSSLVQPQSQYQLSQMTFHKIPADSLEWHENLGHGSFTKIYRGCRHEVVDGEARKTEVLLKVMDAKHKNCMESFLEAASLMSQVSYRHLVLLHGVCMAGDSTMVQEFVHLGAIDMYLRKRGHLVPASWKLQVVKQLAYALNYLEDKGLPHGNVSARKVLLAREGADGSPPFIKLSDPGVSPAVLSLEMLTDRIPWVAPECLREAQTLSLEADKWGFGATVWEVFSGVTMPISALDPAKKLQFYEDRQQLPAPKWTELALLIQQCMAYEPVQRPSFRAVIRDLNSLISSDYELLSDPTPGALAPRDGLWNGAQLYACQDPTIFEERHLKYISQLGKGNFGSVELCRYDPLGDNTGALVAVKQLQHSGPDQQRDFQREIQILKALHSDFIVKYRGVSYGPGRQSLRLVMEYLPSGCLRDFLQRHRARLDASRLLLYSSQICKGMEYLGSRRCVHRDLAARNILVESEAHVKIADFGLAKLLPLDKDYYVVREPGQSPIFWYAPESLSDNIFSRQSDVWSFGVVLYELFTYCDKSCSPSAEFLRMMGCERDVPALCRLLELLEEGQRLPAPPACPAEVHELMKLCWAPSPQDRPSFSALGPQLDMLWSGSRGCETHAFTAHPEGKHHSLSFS
The experiment in a line: JAK Caliper Enzyme Assay at 4 μM ATP. In kind it is biochemical. A digest of the protocol: (§1)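 First, compound stocks in DMSO were serially diluted half-log over 11 points, starting at 600 μM. Next, reactions ran with batch-optimized enzyme and timing targeting 20%-30% phosphorylation. Finally, wells were sampled and product separated from substrate peptide electrophoretically.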

For data set [4], the target named is T1, JAK3 enzyme. Nature of the data set: JAK Caliper Enzyme Assay at 1 mM ATP. In kind it is biochemical. A digest of the protocol:
as §1

Data set [5] in a line: Stability of JAK3 Covalent Inhibitors in Human Whole Blood. It counts as in vitro ADME. Conditions: 1 μM test compound, 37° C., 180 min incubation; for half-life at 1 μM: both sexes, read-out: Human blood stability t1/2. A digest of the protocol: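 Compound at 1 μM final incubated in duplicate at 37° C for 180 min in fresh K2-EDTA whole blood […]. Samples quenched in acetonitrile with internal standard; LC-MS/MS peak area ratios gave % parent remaining over time.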

SMILES strings stand for the structures.

With `C=CC(=O)N1CC[C@@H](Nc2cnc3[nH]cc(C(=O)N[C@@H]4C[C@H]4C(F)(F)F)c3n2)[C@@H](OC)C1` [Example 316, 2-{[(3S,4R)-1-acryloyl-3-methoxypiperidin-4-yl]amino}-N-[(1R,2R)-2-(trifluoromethyl)cyclopropyl]-5H-pyrrolo[2,3-b]pyrazine-7-carboxamide], the IC50 worked out at 294 nM in data set [1], 1450 nM in data set [2], 0.643 nM in data set [3] and 129 nM in data set [4].
Consider `C=CC(=O)N1CCN(c2cnc3[nH]cc(C(=O)N[C@H](CC)CC#N)c3n2)CC1` [Example 315, 2-(4-acryloylpiperazin-1-yl)-N-[(2R)-1-cyanobutan-2-yl]-5H-pyrrolo[2,3-b]pyrazine-7-carboxamide], for which the IC50 in data set [1] amounted to 74.9 nM; in data set [2] it was 211 nM; in data set [3], 0.348 nM; in data set [4] it was 26 nM.
As for `C=CC(=O)N1CC[C@@H](Nc2cnc3[nH]cc(C(=O)NCCCC(F)(F)F)c3n2)[C@@H](OC)C1` [Example 308, 2-{[(3S,4R)-1-acryloyl-3-methoxypiperidin-4-yl]amino}-N-(4,4,4-trifluorobutyl)-5H-pyrrolo[2,3-b]pyrazine-7-carboxamide], the IC50 in data set [1] worked out at 306 nM; in data set [2] it was 775 nM; in data set [3], 0.531 nM; in data set [4] it was 48 nM.
Regarding `C=CC(=O)N1CCN(c2cnc3[nH]cc(C(=O)NC4CCCC4)c3n2)CC1` (racemic) [Example 292, Racemic-2-(4-acryloylpiperazin-1-yl)-N-cyclopentyl-5H-pyrrolo[2,3-b]pyrazine-7-carboxamide], the IC50 in data set [1] worked out at 27.7 nM; in data set [2], 841 nM; in data set [3], 0.315 nM; in data set [4], 17 nM.
As to `C=CC(=O)N1CCN(c2cnc3[nH]cc(C(=O)NC4CC(F)(F)C4)c3n2)CC1` [Example 283, 2-(4-acryloylpiperazin-1-yl)-N-(3,3-difluorocyclobutyl)-5H-pyrrolo[2,3-b]pyrazine-7-carboxamide], the IC50 in data set [1] stood at 257 nM; in data set [2] it was 1200 nM; in data set [3] it was 0.509 nM; in data set [4], 97 nM.
Take `C=CC(=O)N1CCC(Oc2cnc3[nH]cc(C(=O)NCC(C)C)c3n2)CC1` [Example 222, 2-[(1-acryloylpiperidin-4-yl)oxy]-N-(2-methylpropyl)-5H-pyrrolo[2,3-b]pyrazine-7-carboxamide]: the IC50 in data set [1] came out at 280 nM; in data set [2], 1020 nM; in data set [3], 0.38 nM; in data set [4] it was 53 nM.
On to `C=CC(=O)N1CC[C@@H](Nc2cnc3[nH]cc(C(=O)NCC(F)(F)F)c3n2)[C@@H](OC)C1` [Example 317, 2-{[(3S,4R)-1-acryloyl-3-methoxypiperidin-4-yl]amino}-N-(2,2,2-trifluoroethyl)-5H-pyrrolo[2,3-b]pyrazine-7-carboxamide], for which the IC50 in data set [1] came to 315 nM; in data set [2], 835 nM; in data set [3] it was 0.979 nM; in data set [4], 77 nM.
For the molecule `C=CC(=O)N1CCC(Nc2cnc3[nH]cc(C(=O)NCc4ccc(OC)cc4)c3n2)CC1` [Example 191, 2-[(1-acryloylpiperidin-4-yl)amino]-N-(4-methoxybenzyl)-5H-pyrrolo[2,3-b]pyrazine-7-carboxamide], the IC50 in data set [1] amounted to 137 nM; in data set [2] it was 778 nM; in data set [3] it was 0.484 nM; in data set [4] it was 9 nM.
Consider `C=CC(=O)N1CCCC(Oc2cnc3[nH]cc(C(=O)N[C@@H](C)COC)c3n2)C1` (mixture of isomers) [Example 51, Racemic-2-[(1-acryloylpiperidin-3-yl)oxy]-N-[(2S)-1-methoxypropan-2-yl]-5H-pyrrolo[2,3-b]pyrazine-7-carboxamide], for which the IC50 in data set [1] was found to be 999 nM; in data set [3] it was 2.93 nM; in data set [4] it was 212 nM. For the same molecule, the half-life at 1 μM in data set [5] is 2.65 h.
Regarding `C=CC(=O)N1CC[C@@H](Nc2cnc3[nH]cc(C(=O)NCC)c3n2)[C@H](C)C1` (racemic) [Example 43, Trans-racemic-2-{[(3R,4R)-1-acryloyl-3-methylpiperidin-4-yl]amino}-N-ethyl-5H-pyrrolo[2,3-b]pyrazine-7-carboxamide], the values for the IC50 in data set [1], in data set [3] and in data set [4] were 411 nM, 0.258 nM and 50 nM, respectively. Further, in data set [5], the half-life at 1 μM is 3.73 h.
As to `C=CC(=O)N1CC[C@H](Nc2cnc3[nH]cc(C(=O)NCC)c3n2)[C@@H](OC)C1` (single isomer, unassigned) [Example 27], the IC50 in data set [1] was 382 nM; in data set [3], 0.468 nM; in data set [4], 19 nM. For the same molecule, the half-life at 1 μM in data set [5] is more than 6 h.
On to `C=CC(=O)N1CC[C@H](Nc2cnc3[nH]cc(C(=O)NCC(F)(F)F)c3n2)C1` [Example 231, 2-{[(3S)-1-acryloylpyrrolidin-3-yl]amino}-N-(2,2,2-trifluoroethyl)-5H-pyrrolo[2,3-b]pyrazine-7-carboxamide], for which the IC50 in data set [1] turned out to be 353 nM; in data set [3], 0.322 nM; in data set [4], 85 nM. The half-life at 1 μM in data set [5] stood at 5.35 h.
For `C=CC(=O)N1C[C@@H](Nc2cnc3[nH]cc(C(=O)NCC)c3n2)CC[C@H]1C` (single isomer, unassigned) [Example 75], the IC50 in data set [1] stood at 2280 nM; in data set [3], 1.6 nM; in data set [4] it was 316 nM. Further, in data set [5], the half-life at 1 μM was more than 6 h.
Take `C=CC(=O)N1C[C@H](Nc2ncnc3[nH]ccc23)C[C@H](O)[C@@H]1C` [Example 133]: the IC50 came out at 302 nM in data set [1], 1.11 nM in data set [3] and 76 nM in data set [4]. For the same molecule, the “Human blood stability t1/2” value in data set [5] came out at 3.97 h.
In the case of `C=CC(=O)N1CC[C@H](Oc2cnc3[nH]cc(C(=O)N[C@@H](C)COC)c3n2)C1` [Example 52, 2-{[(3S)-1-acryloylpyrrolidin-3-yl]oxy}-N-[(2S)-1-methoxypropan-2-yl]-5H-pyrrolo[2,3-b]pyrazine-7-carboxamide], the IC50 turned out to be 627 nM in data set [1], 1.02 nM in data set [3] and 153 nM in data set [4]. Besides, the half-life at 1 μM in data set [5] turned out to be 2.78 h.
